# How the values were obtained:
# galium = assay: Test D preemergence; format: in vivo, Galium aparine; conditions: Galium, pre-emergence
# In short: (§1)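 Plant response is a visual score from 0 (no effect) to 100 (complete control) relative to controls. Plants were kept in a controlled growth environment for 7 to 21 days after spraying. Preemergence treatments went onto silt loam soil; postemergence ones onto 1- to 4-leaf seedlings.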
# johnsongrass = assay: Test F preemergence; format: in vivo, Sorghum halepense; conditions: 21 days, scale 0 to 100
# In short: (§2)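 Preemergence application to seeded loam–sand soil, with compound delivered in a non-phytotoxic solvent plus surfactant; weed control assessed visually at 21 days (0–100 scale).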
# guineagrass = assay: Test F preemergence; format: in vivo, Panicum maximum; conditions: 21 days, scale 0 to 100
# Description: (§3) Seeds of plant species selected from bermudagrass (Cynodon dactylon), surinam grass (Brachiaria decumbens), large (Lg) crabgrass (Digitaria sanguinalis), crabgrass, naked (naked crabgrass, Digitaria nuda), foxtail, green (green foxtail, Setaria viridis), johnsongrass (Sorghum halepense), kochia (Kochia scoparia), morningglory (pitted morningglory, Ipomoea lacunosa), nutsedge, purple (purple nutsedge, Cyperus rotundus), ragweed (common ragweed, Ambrosia elatior), mustard, black (black mustard, Brassica nigra), guineagrass (Panicum maximum), dallisgrass (Paspalum dilatatum), barnyardgrass (Echinochloa crus-galli), sandbur (southern sandbur, Cenchrus echinatus), sowthistle (common sowthistle, Sonchus oleraceous), Italian ryegrass (Lolium multiflorum), signalgrass (broadleaf signalgrass, Brachiaria platyphylla), dayflower (Virginia (VA) dayflower, Commelina virginica), bluegrass (annual bluegrass, Poa annua), quackgrass (Elytrigia repens), mallow (common mallow, Malva sylvestris), buckwheat, wild (wild buckwheat, Polygonum convolvulus), leafy spurge (Euphorbia esula), chickweed (common chickweed, Stellaria media), wild poinsettia (Euphorbia heterophylla), and pigweed (Amaranthus retroflexus) were planted into a blend of loam soil and sand and treated preemergence with test chemicals formulated in a non-phytotoxic solvent mixture which included a surfactant.
# (§4) Treated plants and controls were maintained in a greenhouse for 21 days, after which time all species were compared to controls and visually evaluated. Plant response ratings, summarized in Table F, are based on a scale of 0 to 100 where 0 is no effect and 100 is complete control. A dash (-) response means no test result.
# chamomile = assay: Test D preemergence; format: in vivo, Matricaria inodora; conditions: Tripleurospermum inodorum, pre-emergence
# Description: (§5) Seeds of plant species selected from bluegrass (annual bluegrass, Poa annua), blackgrass (Alopecurus myosuroides), canarygrass (littleseed canarygrass, Phalaris minor), chickweed (common chickweed, Stellaria media), galium (catchweed bedstraw, Galium aparine), bromegrass, downy (downy bromegrass, Bromus tectorum), field poppy (Papaver rhoeas), field violet (Viola arvensis), green foxtail (Setaria viridis), deadnettle (henbit deadnettle, Lamium amplexicaule), Italian ryegrass (Lolium multiflorum), kochia (Kochia scoparia), lambsquarters (Chenopodium album), oilseed rape (Brassica napus), pigweed (Amaranthus retroflexus), chamomile (scentless chamomile, Matricaria inodora), Russian thistle (Salsola kali), speedwell (bird's-eye speedwell, Veronica persica), spring barley (Hordeum vulgare), spring wheat (Triticum aestivum), wild buckwheat (Polygonum convolvulus), wild mustard (Sinapis arvensis), wild oat (Avena fatua), wild radish (Raphanus raphanistrum), windgrass (Apera spica-venti), winter barley (Hordeum vulgare), and winter wheat (Triticum aestivum) were planted into a silt loam soil and treated preemergence with test chemicals formulated in a non-phytotoxic solvent mixture which included a surfactant.
# (§6) At the same time, these species were planted in pots containing Redi-Earth® planting medium (Scotts Company, 14111 Scottslawn Road, Marysville, Ohio 43041) comprising spaghnum peat moss, vermiculite, wetting agent and starter nutrients and treated with postemergence applications of the test chemicals formulated in the same manner. Plants ranged in height from 2 to 18 cm (1- to 4-leaf stage). Treated plants and controls were maintained in a controlled growth environment for 7 to 21 days after which time all species were compared to controls and visually evaluated. Plant response ratings, summarized in Table D, are based on a scale of 0 to 100 where 0 is no effect and 100 is complete control. A dash (-) response means no test result.
# spring barley = assay: Test D preemergence; format: in vivo, Hordeum vulgare; conditions: Hordeum vulgare, pre-emergence
# In short: as §1
# winter barley = assay: Test D preemergence; format: in vivo, Hordeum vulgare; conditions: Hordeum vulgare, pre-emergence
# In short: as §1
# bermudagrass = assay: Test F preemergence; format: in vivo, Cynodon dactylon; conditions: 21 days, scale 0 to 100
# Description: as §3, §4
# kochia = assay: Test D preemergence; format: in vivo, Kochia scoparia; conditions: Bassia scoparia, pre-emergence
# Description: as §5, §6
# pigweed = assay: Test D preemergence; format: in vivo, Amaranthus retroflexus; conditions: Amaranthus retroflexus, pre-emergence
# In short: as §1
# mallow = assay: Test F preemergence; format: in vivo, Malva sylvestris; conditions: 21 days, scale 0 to 100
# Description: as §3, §4
# quackgrass = assay: Test F preemergence; format: in vivo, Elytrigia repens; conditions: 21 days, scale 0 to 100
# Description: as §3, §4
# field poppy = assay: Test D postemergence; format: in vivo, Papaver rhoeas; conditions: Papaver rhoeas, post-emergence
# In short: as §1
# lambsquarters = assay: Test D preemergence; format: in vivo, Chenopodium album; conditions: Chenopodium album, pre-emergence
# Description: as §5, §6
# chickweed = assay: Test D postemergence; format: in vivo, Stellaria media; conditions: Stellaria media, post-emergence
# Description: as §5, §6
# mustard, black = assay: Test F preemergence; format: in vivo, Brassica nigra; conditions: 21 days, scale 0 to 100
# In short: as §2
# sowthistle = assay: Test F preemergence; format: in vivo, Sonchus oleraceous; conditions: 21 days, scale 0 to 100
# In short: as §2
smiles,measurement,setting,value
"N#Cc1cccc(Oc2ncc(Cl)cn2)c1-n1cc(OCC(F)(F)F)cn1 [Compound 274, 3-[(5-chloro-2-pyrimidinyl)oxy]-2-[4-(2,2,2-trifluoroethoxy)-1H-pyrazol-1-yl]benzonitrile]",pest or weed control at 16 g/ha,"galium; 16 g ai/ha, scale 0 (no effect) to 100 (complete control), read-out: Plant response rating, Galium",0%
same,pest or weed control at 31 g/ha,"galium; 31 g ai/ha, scale 0-100, read-out: Plant response rating, Galium",60%
same,pest or weed control at 62 g/ha,"galium; 62 g ai/ha, scale 0-100, read-out: Plant response rating, Galium",100%
same,pest or weed control at 125 g/ha,"galium; 125 g ai/ha, scale 0-100, read-out: Plant response rating, Galium",100%
same,"Plant response rating, Johnsongrass",johnsongrass; 16 g ai/ha,65
same,"Plant response rating, Johnsongrass",johnsongrass; 31 g ai/ha,70
same,"Plant response rating, Johnsongrass",johnsongrass; 62 g ai/ha,100
same,"Plant response rating, Johnsongrass",johnsongrass; 125 g ai/ha,100
same,"Plant response rating, Johnsongrass",johnsongrass; 250 g ai/ha,100
same,"Plant response rating, Guineagrass",guineagrass; 16 g ai/ha,100
same,"Plant response rating, Guineagrass",guineagrass; 31 g ai/ha,100
same,"Plant response rating, Guineagrass",guineagrass; 62 g ai/ha,100
same,"Plant response rating, Guineagrass",guineagrass; 125 g ai/ha,100
same,"Plant response rating, Guineagrass",guineagrass; 250 g ai/ha,100
same,pest or weed control at 16 g/ha,"chamomile; 16 g ai/ha, scale 0 (no effect) to 100 (complete control), read-out: Plant response rating, Chamomile",5%
same,pest or weed control at 62 g/ha,"chamomile; 62 g ai/ha, scale 0-100, read-out: Plant response rating, Chamomile",35%
same,pest or weed control at 125 g/ha,"chamomile; 125 g ai/ha, scale 0-100, read-out: Plant response rating, Chamomile",65%
same,plant injury at 16 g/ha,"spring barley; 16 g ai/ha, scale 0 (no effect) to 100 (complete control), read-out: Plant response rating, Barley, Spring",0%
same,plant injury at 31 g/ha,"spring barley; 31 g ai/ha, scale 0-100, read-out: Plant response rating, Barley, Spring",0%
same,plant injury at 62 g/ha,"spring barley; 62 g ai/ha, scale 0-100, read-out: Plant response rating, Barley, Spring",10%
same,plant injury at 125 g/ha,"spring barley; 125 g ai/ha, scale 0-100, read-out: Plant response rating, Barley, Spring",15%
same,plant injury at 16 g/ha,"winter barley; 16 g ai/ha, scale 0 (no effect) to 100 (complete control), read-out: Plant response rating, Barley, Winter",0%
same,plant injury at 31 g/ha,"winter barley; 31 g ai/ha, scale 0-100, read-out: Plant response rating, Barley, Winter",0%
same,plant injury at 62 g/ha,"winter barley; 62 g ai/ha, scale 0-100, read-out: Plant response rating, Barley, Winter",10%
same,plant injury at 125 g/ha,"winter barley; 125 g ai/ha, scale 0-100, read-out: Plant response rating, Barley, Winter",55%
same,"Plant response rating, Bermudagrass",bermudagrass; 16 g ai/ha,85
same,"Plant response rating, Bermudagrass",bermudagrass; 31 g ai/ha,100
same,"Plant response rating, Bermudagrass",bermudagrass; 62 g ai/ha,100
same,"Plant response rating, Bermudagrass",bermudagrass; 125 g ai/ha,100
same,"Plant response rating, Bermudagrass",bermudagrass; 250 g ai/ha,100
same,pest or weed control at 16 g/ha,"kochia; 16 g ai/ha, scale 0 (no effect) to 100 (complete control), read-out: Plant response rating, Kochia",0%
same,pest or weed control at 31 g/ha,"kochia; 31 g ai/ha, scale 0-100, read-out: Plant response rating, Kochia",70%
same,pest or weed control at 62 g/ha,"kochia; 62 g ai/ha, scale 0-100, read-out: Plant response rating, Kochia",65%
same,pest or weed control at 125 g/ha,"kochia; 125 g ai/ha, scale 0-100, read-out: Plant response rating, Kochia",100%
same,pest or weed control at 16 g/ha,"pigweed; 16 g ai/ha, scale 0 (no effect) to 100 (complete control), read-out: Plant response rating, Pigweed",70%
same,pest or weed control at 31 g/ha,"pigweed; 31 g ai/ha, scale 0 (no effect) to 100 (complete control), read-out: Plant response rating, Pigweed",100%
same,pest or weed control at 125 g/ha,"pigweed; 125 g ai/ha, scale 0-100, read-out: Plant response rating, Pigweed",100%
same,"Plant response rating, Mallow",mallow; 16 g ai/ha,98
same,"Plant response rating, Mallow",mallow; 31 g ai/ha,98
same,"Plant response rating, Mallow",mallow; 62 g ai/ha,98
same,"Plant response rating, Mallow",mallow; 125 g ai/ha,100
same,"Plant response rating, Mallow",mallow; 250 g ai/ha,100
same,"Plant response rating, Quackgrass",quackgrass; 16 g ai/ha,40
same,"Plant response rating, Quackgrass",quackgrass; 31 g ai/ha,40
same,"Plant response rating, Quackgrass",quackgrass; 62 g ai/ha,70
same,"Plant response rating, Quackgrass",quackgrass; 125 g ai/ha,85
same,"Plant response rating, Quackgrass",quackgrass; 250 g ai/ha,98
same,pest or weed control at 16 g/ha,"field poppy; 16 g ai/ha, scale 0-100, read-out: Plant response rating, Field Poppy",25%
same,pest or weed control at 31 g/ha,"field poppy; 31 g ai/ha, scale 0 to 100 (0 no effect, 100 complete control), read-out: Plant response rating, Field Poppy",40%
same,pest or weed control at 62 g/ha,"field poppy; 62 g ai/ha, scale 0 to 100 (0 no effect, 100 complete control), read-out: Plant response rating, Field Poppy",40%
same,pest or weed control at 125 g/ha,"field poppy; 125 g ai/ha, scale 0 to 100 (0 no effect, 100 complete control), read-out: Plant response rating, Field Poppy",80%
same,pest or weed control at 16 g/ha,"lambsquarters; 16 g ai/ha, scale 0 (no effect) to 100 (complete control), read-out: Plant response rating, Lambsquarters",20%
same,pest or weed control at 31 g/ha,"lambsquarters; 31 g ai/ha, scale 0-100, read-out: Plant response rating, Lambsquarters",90%
same,pest or weed control at 62 g/ha,"lambsquarters; 62 g ai/ha, scale 0-100, read-out: Plant response rating, Lambsquarters",100%
same,pest or weed control at 125 g/ha,"lambsquarters; 125 g ai/ha, scale 0-100, read-out: Plant response rating, Lambsquarters",100%
same,pest or weed control at 16 g/ha,"chickweed; 16 g ai/ha, scale 0-100, read-out: Plant response rating, Chickweed",65%
same,pest or weed control at 31 g/ha,"chickweed; 31 g ai/ha, scale 0 to 100 (0 no effect, 100 complete control), read-out: Plant response rating, Chickweed",65%
same,pest or weed control at 62 g/ha,"chickweed; 62 g ai/ha, scale 0 to 100 (0 no effect, 100 complete control), read-out: Plant response rating, Chickweed",70%
same,pest or weed control at 125 g/ha,"chickweed; 125 g ai/ha, scale 0 to 100 (0 no effect, 100 complete control), read-out: Plant response rating, Chickweed",80%
same,"Plant response rating, Mustard, Black","mustard, black; 16 g ai/ha",98
same,"Plant response rating, Mustard, Black","mustard, black; 31 g ai/ha",100
same,"Plant response rating, Mustard, Black","mustard, black; 62 g ai/ha",100
same,"Plant response rating, Mustard, Black","mustard, black; 125 g ai/ha",100
same,"Plant response rating, Mustard, Black","mustard, black; 250 g ai/ha",100
same,"Plant response rating, Sowthistle",sowthistle; 16 g ai/ha,100
same,"Plant response rating, Sowthistle",sowthistle; 31 g ai/ha,100
same,"Plant response rating, Sowthistle",sowthistle; 62 g ai/ha,100
same,"Plant response rating, Sowthistle",sowthistle; 125 g ai/ha,100
same,"Plant response rating, Sowthistle",sowthistle; 250 g ai/ha,100
